Data on one compound can be found in patent US11786528B2, “Pyrazolopyrimidine compounds as adenosine receptor antagonists” (EXSCIENTIA LTD., priority 2018, dated 2023).

Molecules are shown by their SMILES.

Assay [1] deals with human A2a receptors (HEK 293 transfected) (Homo sapiens (Human), UniProt P29274). Nature of the assay: Inhibition of cAMP release in HEK-A2aR cells (HTRF, LANCE Ultra cAMP). It counts as cell-based. The note with it: 3 nM NECA, 10 min. As for the experimental part: Functional activity was measured by inhibition of cAMP release in HEK cells (see below for further details).
Sequence of human A2a receptors (HEK 293 transfected) (P29274 whole entry): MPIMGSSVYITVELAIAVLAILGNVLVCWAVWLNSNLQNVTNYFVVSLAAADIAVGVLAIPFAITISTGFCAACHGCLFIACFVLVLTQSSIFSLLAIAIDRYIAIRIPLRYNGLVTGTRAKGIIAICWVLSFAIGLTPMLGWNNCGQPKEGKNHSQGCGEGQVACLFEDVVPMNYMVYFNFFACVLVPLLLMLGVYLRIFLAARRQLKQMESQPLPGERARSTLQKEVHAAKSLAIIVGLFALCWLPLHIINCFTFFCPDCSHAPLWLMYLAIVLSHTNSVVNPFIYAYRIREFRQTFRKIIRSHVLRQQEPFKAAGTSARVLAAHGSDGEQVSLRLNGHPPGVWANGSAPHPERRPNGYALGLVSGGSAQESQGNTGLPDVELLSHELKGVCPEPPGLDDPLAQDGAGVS
To screen A2a receptor inhibitors by HTRF technology, about 500 HEK-A2aR cells (HEK 293 transfected with human A2a receptors) were treated with inhibitors in presence of stimulation buffer (1×HBSS, 5 mM HEPES, 0.1% BSA stabilizer, pH 7.4) supplemented with 30 μM phosphodiesterase inhibitor Rolipram (to prevent cAMP degradation). This stimulation was immediately followed by treatment with 3 nM standard A2aR agonist (NECA) for 10 min under gentle shaking at room temperature. After that, inhibition of cAMP release was determined directly using LANCE Ultra cAMP assay (Perkin Elmer TRF0263).
All analysis was performed using GraphPad Prism 7.0 (GraphPad Software, San Diego, USA). Results are given, as EC50 (M).
A general note: Time-resolved FRET reads energy transfer from a long-lived donor to a nearby acceptor.

Assay [2] relates to human primary CD3+ T-cells. Nature of the assay: Recovery of 2-chloroadenosine (CADO) mediated inhibition of IL-2 production. It counts as cell-based. The note with it: T-cell, two donors, 10 μM CADO, 48 hours. As for the experimental part:
CD3^+ cells were isolated from Buffy Coat of two human healthy donors (Donor 1: D1 and Donor 2: D2) with the RosetteSep technology (RosetteSep Human T cell enrichment cocktail from Stem Cell) according to provider's instructions. T-cells were then stimulated with anti-CD3 mAb, anti-CD28 mAb coated beads (Dynabeads® Human T-Activator CD3/CD28 (Thermo Fisher Scientific) in a complete medium containing 10% fetal bovine serum in the presence or not of Example 1. After one hour incubation time, CADO (2-chloroadenosine, Abcam Biochemical) at 10 μM was added to the culture. After 48 hours of stimulation at 37° C., 5% CO2 and a short centrifugation, culture supernatant were harvested and stored at −80° C. for further evaluation by ELISA. In the meantime, a staining with a living dye was performed to access compound-induced toxicity. Il-2 measurement was performed by using the Human IL-2 Uncoated ELISA (Invitrogen) following data sheet instructions. To access the percentage of IL-2 inhibition induced by 10 μM CADO, the calculation used control condition (cells stimulated in basal condition). Then to access compound-induced recovery of IL-2 production, each dose was normalized following this formula: ([sample]−[mean of CADO])/([mean of basal condition]−[mean of CADO])*100. Compounds normalization was performed per plate. […]

In a further assay the test system is MCA-205 tumor. Nature of the assay: Inhibition of the growth of MCA-205 tumor in syngeneic mice. Format: in vivo, mouse. The note with it: 30 mg/kg BID oral gavage, 11 consecutive days from day 10; day 19 to study termination; p<0.005 and p<0.001. How it is done: C57/BI6JRjJL female mice (9-10 weeks old from Janvier Laboratories) were engrafted in subcutaneous location with 0.25.10^6 MCA-205 cells (suspended in 100% PBS buffer, fibrosarcoma cell line kindly provided by Dr. J. Stagg, Universite de Montréal, Canada). Mice were then kept in a post-operative cabinet at 28° C. until complete recovery.
Randomization of mice was performed on day 9 post-cell inoculation, after measurement of tumour volumes using a digital caliper. Assuming an ovoid form of the tumour, the following formula was applied: Volume=0.52×(width)^2×length. Width and length were expressed in mm, volume in mm^3. Twenty-six female mice were allocated in two groups: vehicle and Example 1 (n=13 mice/group). Oral gavage with vehicle (control group, PEG200/Soluplus 10% in Citrate Buffer pH3 at 50 mM (50%/50% w/v)) or Example 1 solubilized in the vehicle at 30 mg/kg in BID (twice daily administrations by oral gavage with a volume of administration of 5 ml/kg) was initiated 10 days after cell inoculation and continued for 11 consecutive days.

In assay [3] the target is human adenosine receptor sub-type A2b (Homo sapiens (Human), UniProt P29275). Nature of the assay: Affinity for human adenosine A2b receptor by SPR. It counts as binding. As for the experimental part: (§1) Affinity for the human adenosine receptor sub-types (A2a, A2b, A1 and A3) was determined by surface plasmon resonance (SPR) using published methodologies (see below for further details).
Sequence of human adenosine receptor sub-type A2b (P29275 whole entry): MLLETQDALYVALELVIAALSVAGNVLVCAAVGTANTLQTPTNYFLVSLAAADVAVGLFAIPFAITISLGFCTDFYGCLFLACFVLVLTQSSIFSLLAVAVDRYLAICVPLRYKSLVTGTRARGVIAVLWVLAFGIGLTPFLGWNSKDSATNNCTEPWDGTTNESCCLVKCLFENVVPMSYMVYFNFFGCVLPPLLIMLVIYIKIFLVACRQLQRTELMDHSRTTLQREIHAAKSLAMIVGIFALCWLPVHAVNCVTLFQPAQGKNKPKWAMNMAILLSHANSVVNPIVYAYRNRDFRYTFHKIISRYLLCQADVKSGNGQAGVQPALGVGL
(§2) Affinity for the human adenosine receptor sub-types (A2a, A2b, A1 and A3) was determined by SPR as described in Aristotelous, T., et al, Methods in Enzymology (2015), Volume 556, Chapter 23, pages 499-525 and Congreve, M., et al, J Med Chem (2012), Vol. 55, pages 1898-1903. The method used was analogous to the method used in Congreve, M., et al (see supplementary page S10) for the A2a receptor, but the wild type receptor was used rather than the proprietary StaR form.

Assay [4] has as its target human adenosine receptor sub-type A1 (Homo sapiens (Human), UniProt P30542). Nature of the assay: Affinity for human adenosine A1 receptor by SPR. Format: binding. As for the experimental part: as §1, §2
Assay [5] deals with human adenosine receptor sub-type A2a (wild type) (Homo sapiens (Human), UniProt P29274). Nature of the assay: Affinity for human adenosine A2a receptor by surface plasmon resonance (SPR). Format: binding. How it is done: as §1, §2
Sequence of human adenosine receptor sub-type A2a (wild type) (P29274 whole entry): as the sequence (P29274 whole entry) above
A general note: In SPR one partner is held on a chip, and binding of the other changes the refractive index at the surface.

For assay [6], the target named is human adenosine receptor sub-type A3 (Homo sapiens (Human), UniProt P0DMS8). Nature of the assay: Affinity for human adenosine A3 receptor by SPR. It counts as binding. How it is done:
as §1, §2

Where [7] appears, read: from SPR IC50 values, rounded to 2 significant figures.

Sequence of human adenosine receptor sub-type A1 (P30542 whole entry): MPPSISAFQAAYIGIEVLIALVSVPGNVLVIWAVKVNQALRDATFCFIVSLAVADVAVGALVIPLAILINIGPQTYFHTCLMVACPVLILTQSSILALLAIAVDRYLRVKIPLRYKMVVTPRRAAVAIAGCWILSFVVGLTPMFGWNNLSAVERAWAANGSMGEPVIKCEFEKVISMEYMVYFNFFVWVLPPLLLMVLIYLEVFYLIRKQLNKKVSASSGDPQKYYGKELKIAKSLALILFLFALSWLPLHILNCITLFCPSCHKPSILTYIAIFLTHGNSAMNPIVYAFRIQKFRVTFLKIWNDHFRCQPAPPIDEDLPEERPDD
Sequence of human adenosine receptor sub-type A3 (P0DMS8 whole entry): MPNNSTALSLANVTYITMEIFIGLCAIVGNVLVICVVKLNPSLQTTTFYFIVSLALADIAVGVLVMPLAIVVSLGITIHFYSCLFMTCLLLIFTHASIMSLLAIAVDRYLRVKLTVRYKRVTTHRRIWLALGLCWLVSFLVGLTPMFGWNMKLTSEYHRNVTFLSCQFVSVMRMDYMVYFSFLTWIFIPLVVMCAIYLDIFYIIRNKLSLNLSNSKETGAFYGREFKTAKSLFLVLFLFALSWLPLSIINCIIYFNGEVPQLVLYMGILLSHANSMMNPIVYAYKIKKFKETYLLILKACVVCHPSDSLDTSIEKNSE

As for `Cc1cccc(Cn2cc3c(N)nc(-c4ccsn4)nc3n2)c1` [Example 1, 2-[(3-methylphenyl)methyl]-6-(1,2-thiazol-3-yl)-2H-pyrazolo[3,4-d]pyrimidin-4-amine], the EC50 (usually the concentration needed to bring the measured effect to its halfway point) in assay [1] amounted to 4 nM; in assay [2] it was 560 nM. For the same compound, the mean tumor volume entry in the assay on MCA-205 tumor is on record as “significant inhibition of the mean tumor volume”. In addition, the IC50 – broadly, the concentration that inhibits the measured activity by half – in assay [3] (SPR, human A2b receptor) is 1500 nM; in assay [4] (SPR, human A1 receptor), 3100 nM; in assay [5] it was 3.5 nM; in assay [6] (SPR, human A3 receptor), 35800 nM. The “Relative selectivity for A2a v. A2b” value in assay [3] (setting [7]) was found to be 430. Besides, the “Relative selectivity for A2a v. A1” value in assay [4] (setting [7]) was 890. The “Relative selectivity for A2a v. A3” value in assay [6] (setting [7]) came to 10000.
